Results taken from PubChem BioAssay (NCI).
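Assay format: 96-well plates, 48-hour exposure. GI50 marks 50% less growth. TGI is the concentration that stops growth completely.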

Tests used:
Assay in all cases: NCI anticancer screen, dose series, 48 h
MDA-MB-231 breast = test system: MDA-MB-231 breast
HT29 colon = test system: HT29 colon
SN12C renal = test system: SN12C renal
SK-MEL-5 melanoma = test system: SK-MEL-5 melanoma
UACC-257 melanoma = test system: UACC-257 melanoma
HCC-2998 colon = test system: HCC-2998 colon
SF-539 CNS = test system: SF-539 CNS
SNB-75 CNS = test system: SNB-75 CNS
SF-268 CNS = test system: SF-268 CNS
NCI-H23 lung = test system: NCI-H23 lung
HCT-116 colon = test system: HCT-116 colon
MALME-3M melanoma = test system: MALME-3M melanoma
HL-60(TB) leukemia = test system: HL-60(TB) leukemia
COLO 205 colon = test system: COLO 205 colon
SR leukemia = test system: SR leukemia
A549 NSCLC = test system: A549 NSCLC
SK-MEL-2 melanoma = test system: SK-MEL-2 melanoma
MDA-MB-435 = test system: MDA-MB-435
SK-MEL-28 melanoma = test system: SK-MEL-28 melanoma
A498 renal = test system: A498 renal
PC-3 prostate = test system: PC-3 prostate
OVCAR-8 ovarian = test system: OVCAR-8 ovarian
NCI-H226 lung = test system: NCI-H226 lung
K-562 leukemia = test system: K-562 leukemia
T-47D breast = test system: T-47D breast
HS 578T breast = test system: HS 578T breast
MCF7 breast = test system: MCF7 breast
CAKI-1 renal = test system: CAKI-1 renal
MOLT-4 leukemia = test system: MOLT-4 leukemia
M14 melanoma = test system: M14 melanoma
DU-145 prostate = test system: DU-145 prostate
SK-OV-3 ovarian = test system: SK-OV-3 ovarian
SF-295 CNS = test system: SF-295 CNS
CCRF-CEM leukemia = test system: CCRF-CEM leukemia
LOX IMVI melanoma = test system: LOX IMVI melanoma
786-0 renal = test system: 786-0 renal
EKVX NSCLC = test system: EKVX NSCLC
IGROV1 ovarian = test system: IGROV1 ovarian
U251 CNS = test system: U251 CNS
HCT-15 colon = test system: HCT-15 colon
NCI/ADR-RES ovarian = test system: NCI/ADR-RES ovarian
ACHN renal = test system: ACHN renal
SW-620 colon = test system: SW-620 colon
HOP-62 NSCLC = test system: HOP-62 NSCLC
OVCAR-4 ovarian = test system: OVCAR-4 ovarian
OVCAR-3 ovarian = test system: OVCAR-3 ovarian
NCI-H522 lung = test system: NCI-H522 lung
KM12 colon = test system: KM12 colon
BT-549 breast = test system: BT-549 breast
RPMI-8226 leukemia = test system: RPMI-8226 leukemia
TK-10 renal = test system: TK-10 renal
OVCAR-5 ovarian = test system: OVCAR-5 ovarian
NCI-H460 lung = test system: NCI-H460 lung
HOP-92 NSCLC = test system: HOP-92 NSCLC
UO-31 renal = test system: UO-31 renal
UACC-62 melanoma = test system: UACC-62 melanoma
SNB-19 CNS = test system: SNB-19 CNS

O=C(CCCCCCNC(=O)C(O)(O)C(F)(F)F)Nc1ccc(-c2ccccc2)cc1
GI50 (MDA-MB-231 breast): 2.84 µM | TGI (MDA-MB-231 breast): 10.7 µM | GI50 (HT29 colon): 3.77 µM | TGI (HT29 colon): > 33.2 µM | GI50 (SN12C renal): 4.21 µM | TGI (SN12C renal): 16 µM | GI50 (SK-MEL-5 melanoma): 1.94 µM | TGI (SK-MEL-5 melanoma): 6.27 µM | GI50 (UACC-257 melanoma): 4.67 µM | TGI (UACC-257 melanoma): 14.5 µM | GI50 (HCC-2998 colon): 4.91 µM | TGI (HCC-2998 colon): 9.88 µM | GI50 (SF-539 CNS): 4.61 µM | TGI (SF-539 CNS): 13 µM | GI50 (SNB-75 CNS): 2.92 µM | TGI (SNB-75 CNS): > 33.2 µM | GI50 (SF-268 CNS): 5.98 µM | TGI (SF-268 CNS): 14.3 µM | GI50 (NCI-H23 lung): 4.28 µM | TGI (NCI-H23 lung): 13.6 µM | GI50 (HCT-116 colon): 1.27 µM | TGI (HCT-116 colon): 7.08 µM | GI50 (MALME-3M melanoma): 1.6 µM | TGI (MALME-3M melanoma): 10.2 µM | GI50 (HL-60(TB) leukemia): 2.64 µM | TGI (HL-60(TB) leukemia): > 33.2 µM | GI50 (COLO 205 colon): 4.03 µM | TGI (COLO 205 colon): 11.8 µM | GI50 (SR leukemia): 1.43 µM | TGI (SR leukemia): > 33.2 µM | GI50 (A549 NSCLC): 6.04 µM | TGI (A549 NSCLC): 28.8 µM | GI50 (SK-MEL-2 melanoma): 3.31 µM | TGI (SK-MEL-2 melanoma): 8.97 µM | GI50 (MDA-MB-435): 3.55 µM | TGI (MDA-MB-435): 32.4 µM | GI50 (SK-MEL-28 melanoma): 2.09 µM | TGI (SK-MEL-28 melanoma): 8.52 µM | GI50 (A498 renal): 0.7 µM | TGI (A498 renal): 6.41 µM | GI50 (PC-3 prostate): 3.78 µM | TGI (PC-3 prostate): 19 µM | GI50 (OVCAR-8 ovarian): 3.25 µM | TGI (OVCAR-8 ovarian): > 33.2 µM | GI50 (NCI-H226 lung): 7.55 µM | TGI (NCI-H226 lung): 26.6 µM | GI50 (K-562 leukemia): 1.58 µM | TGI (K-562 leukemia): > 33.2 µM | GI50 (T-47D breast): 2.96 µM | TGI (T-47D breast): 25.3 µM | GI50 (HS 578T breast): 4.15 µM | TGI (HS 578T breast): 25.3 µM | GI50 (MCF7 breast): 5.57 µM | TGI (MCF7 breast): 30 µM | GI50 (CAKI-1 renal): 5.74 µM | TGI (CAKI-1 renal): 17.5 µM | GI50 (MOLT-4 leukemia): 1.32 µM | TGI (MOLT-4 leukemia): > 33.2 µM | GI50 (M14 melanoma): 3.82 µM | TGI (M14 melanoma): 12.5 µM | GI50 (DU-145 prostate): 4.78 µM | TGI (DU-145 prostate): 32.7 µM | GI50 (SK-OV-3 ovarian): 4.31 µM | TGI (SK-OV-3 ovarian): 21.6 µM | GI50 (SF-295 CNS): 2.53 µM | TGI (SF-295 CNS): 7.49 µM | GI50 (CCRF-CEM leukemia): 1.84 µM | TGI (CCRF-CEM leukemia): > 33.2 µM | GI50 (LOX IMVI melanoma): 1.96 µM | TGI (LOX IMVI melanoma): 6.29 µM | GI50 (786-0 renal): 4.34 µM | TGI (786-0 renal): 11.7 µM | GI50 (EKVX NSCLC): 5.26 µM | TGI (EKVX NSCLC): > 33.2 µM | GI50 (IGROV1 ovarian): 3.9 µM | TGI (IGROV1 ovarian): 10.6 µM | GI50 (U251 CNS): 3.62 µM | TGI (U251 CNS): 10.9 µM | GI50 (HCT-15 colon): 4.73 µM | TGI (HCT-15 colon): 9.8 µM | GI50 (NCI/ADR-RES ovarian): 3.99 µM | TGI (NCI/ADR-RES ovarian): 12.4 µM | GI50 (ACHN renal): 2.85 µM | TGI (ACHN renal): 9.22 µM | GI50 (SW-620 colon): 1.8 µM | TGI (SW-620 colon): 7.24 µM | GI50 (HOP-62 NSCLC): 4.76 µM | TGI (HOP-62 NSCLC): 29.4 µM | GI50 (OVCAR-4 ovarian): 11 µM | TGI (OVCAR-4 ovarian): > 33.2 µM | GI50 (OVCAR-3 ovarian): 3.39 µM | TGI (OVCAR-3 ovarian): 8.2 µM | GI50 (NCI-H522 lung): 3.81 µM | TGI (NCI-H522 lung): 20.5 µM | GI50 (KM12 colon): 3.84 µM | TGI (KM12 colon): 9.23 µM | GI50 (BT-549 breast): 4.21 µM | TGI (BT-549 breast): 13.2 µM | GI50 (RPMI-8226 leukemia): 2.32 µM | TGI (RPMI-8226 leukemia): > 33.2 µM | GI50 (TK-10 renal): 1.63 µM | TGI (TK-10 renal): > 33.2 µM | GI50 (OVCAR-5 ovarian): 1.62 µM | TGI (OVCAR-5 ovarian): 9.14 µM | GI50 (NCI-H460 lung): 3.24 µM | TGI (NCI-H460 lung): 11.4 µM | GI50 (HOP-92 NSCLC): 0.74 µM | TGI (HOP-92 NSCLC): 4.18 µM | GI50 (UO-31 renal): 3.11 µM | TGI (UO-31 renal): 8.88 µM | GI50 (UACC-62 melanoma): 1.31 µM | TGI (UACC-62 melanoma): 5.39 µM | GI50 (SNB-19 CNS): 4.63 µM | TGI (SNB-19 CNS): 10.3 µM
